Measured values reported in patent US8415289B2, “Bacterial-derived BLIS for treatment of acne” (The Trustees of the University of Pennsylvania, priority 2005, dated 2013).

Test system: S. salivarius
Experiment: Etest MIC susceptibility of clinical S. salivarius isolates to antibiotics
Type: cell-based, Streptococcus salivarius
Experimental: The dorsum of the tongue was swabbed and the specimen collected using a BBL CultureSwab Collection and Transport System (Difco, Detroit, Mich.). The sterile cotton stick was drawn across the dorsum of the tongue 10-12 times while maintaining pressure. Swabs were stored at 4° C. for no more than 24 h. Cultures were diluted 10 and 100-fold using Tryptic Soy Broth (Difco, Detroit, Mich.), and diluted cultures directly inoculated on mitis-salivarius agar (Difco, Detroit, Mich.) using sterile technique. Plates were incubated upside down at 37° C. in 5% carbon dioxide for 24 h. Colonies were screened by morphology consistent with S. salivarius (large, soft, fluffy colonies due to levan production from the sucrose in the agar). This is the standard method used to screen for S. salivarius (24;24). All samples identified based on visual morphology were frozen and stored for subsequent testing (BLIS assays and resistance testing).
Colonies identified as S. salivarius by morphology were tested for susceptibility to clindamycin, erythromycin and tetracycline using the Etest MIC method. Etest strips were purchased from AB Biodisk (Piscataway, N.J., USA), and were used in accordance with the manufacturer's instructions. The concentration gradient of each antimicrobial agent on the Etest strips was 0.016-256 ug/ml. MICs were read directly from the test strip where the zone of inhibition intersected the MIC scale on the strip. Zones of inhibition were compared with standard values (NCCLS M100-S10) to assign a designation of “susceptible,” “intermediate”, or “resistant” to each antimicrobial agent.
Secondarily, determination was made as to whether the S. salivarius recovered was resistant to clindamycin, erythromycin, and tetracycline. Chi-squared analyses were performed to detect a difference among Groups Ia, Ib, and II. We further stratified the acne patients into those receiving oral and/or topical antibiotics, and no antibiotics. These findings were represented as simple percentages, allowing for qualitative comparisons among these groups. […] This accounts for the discrepancy between the numerators in Table 2 and the denominators in Table 3.

[1] = Group II: no acne, no antibiotics, 15 isolates, NCCLS M100-S10
[2] = Group Ia: acne, using antibiotics, 13 isolates, NCCLS M100-S10
[3] = Group Ib: acne, not using antibiotics, 5 isolates, NCCLS M100-S10

Compound: CC[C@H]1OC(=O)[C@H](C)[C@@H](O[C@H]2C[C@@](C)(OC)[C@@H](O)[C@H](C)O2)[C@H](C)[C@@H](O[C@@H]2O[C@H](C)C[C@H](N(C)C)[C@H]2O)[C@](C)(O)C[C@@H](C)C(=O)[C@H](C)[C@@H](O)[C@]1(C)O [Erythromycin, erythromycin]
- Proportion of antibiotic-resistant Streptococcus salivarius in the oropharynx [1]: 3/15 (20%)
- Proportion of antibiotic-resistant Streptococcus salivarius in the oropharynx (Group II: no acne, no antibiotics, 15 isolates, NCCLS M100-S10, listed as erythromycin): 20%
- Proportion of antibiotic-resistant Streptococcus salivarius in the oropharynx [2]: 9/13 (69%)
- Proportion of antibiotic-resistant Streptococcus salivarius in the oropharynx (Group Ia: acne, using antibiotics, 13 isolates, NCCLS M100-S10, listed as erythromycin): 69%
- Proportion of antibiotic-resistant Streptococcus salivarius in the oropharynx [3]: 2/5 (40%)
- Proportion of antibiotic-resistant Streptococcus salivarius in the oropharynx (Group Ib: acne, not using antibiotics, 5 isolates, NCCLS M100-S10, listed as erythromycin): 40%

Compound: CN(C)[C@@H]1C(O)=C(C(N)=O)C(=O)[C@@]2(O)C(O)=C3C(=O)c4c(O)cccc4[C@@](C)(O)[C@H]3C[C@@H]12 [Tetracycline, tetracycline]
- Proportion of antibiotic-resistant Streptococcus salivarius in the oropharynx [1]: 4/15 (27%)
- Proportion of antibiotic-resistant Streptococcus salivarius in the oropharynx (Group II: no acne, no antibiotics, 15 isolates, NCCLS M100-S10, listed as tetracycline): 27%
- Proportion of antibiotic-resistant Streptococcus salivarius in the oropharynx [2]: 10/13 (77%)
- Proportion of antibiotic-resistant Streptococcus salivarius in the oropharynx (Group Ia: acne, using antibiotics, 13 isolates, NCCLS M100-S10, listed as tetracycline): 77%
- Proportion of antibiotic-resistant Streptococcus salivarius in the oropharynx [3]: 2/5 (40%)
- Proportion of antibiotic-resistant Streptococcus salivarius in the oropharynx (Group Ib: acne, not using antibiotics, 5 isolates, NCCLS M100-S10, listed as tetracycline): 40%

Compound: CCC[C@@H]1C[C@@H](C(=O)N[C@@H]([C@H]2O[C@H](SC)[C@H](O)[C@@H](O)[C@H]2O)[C@H](C)Cl)N(C)C1 [Clindamycin, clindamycin]
- Proportion of antibiotic-resistant Streptococcus salivarius in the oropharynx [1]: 1/15 (7%)
- Proportion of antibiotic-resistant Streptococcus salivarius in the oropharynx (Group II: no acne, no antibiotics, 15 isolates, NCCLS M100-S10, listed as clindamycin): 7%
- Proportion of antibiotic-resistant Streptococcus salivarius in the oropharynx [2]: 9/13 (69%)
- Proportion of antibiotic-resistant Streptococcus salivarius in the oropharynx (Group Ia: acne, using antibiotics, 13 isolates, NCCLS M100-S10, listed as clindamycin): 69%
- Proportion of antibiotic-resistant Streptococcus salivarius in the oropharynx [3]: 1/5 (20%)
- Proportion of antibiotic-resistant Streptococcus salivarius in the oropharynx (Group Ib: acne, not using antibiotics, 5 isolates, NCCLS M100-S10, listed as clindamycin): 20%
